Laboratory results from patent EP0791603A2, “Pure somatostatin antagonist and methods of use thereof” (American Cyanamid Company, priority 1996, dated 1997).
Positions of bridges follow the written chain, without caps; N, C: chain ends. Non-standard residues stand in square brackets, D forms with d. Residues, ends and D or L forms follow the SMILES beside them. NMePhe(4-NO2) = CN[C@@H](Cc1ccc([N+](=O)[O-])cc1)C(=O)O; Phe(4-NO2) = N[C@@H](Cc1ccc([N+](=O)[O-])cc1)C(=O)O; 2Nal = N[C@@H](Cc1ccc2ccccc2c1)C(=O)O; d2Nal = N[C@H](Cc1ccc2ccccc2c1)C(=O)O; Abu = CC[C@H](N)C(=O)O

Target: SSTR2 (Rattus norvegicus, UniProt P30680)
Experiment: Cyclic AMP accumulation in intact cells (adrenal binding protein method)
Assay type: cell-based
Settings: forskalin stimulated c-AMP levels in intact cells, 15 minutes at 37°C; read-out: % IA (% intrinsic activity)
Description: Cyclic AMP accumulation assays are used to determine the functional coupling of somatostatin receptors to effectors. All five cloned somatostatin receptors inhibit cyclic AMP accumulation and adenylyl cyclone activity ^1 ^,2,3,4,5. This evaluation measures cyclic AMP accumulation from intact cells using the adrenal binding protein method. Signal transduction by somatostatin is mediated by lowering intracellular c-AMP levels. This functional assay measures the ability of the test compound to inhibit the effect of somatostatin on forskalin stimulated c-AMP levels. ^1 K. Yasuda, S. Rens-Damiano, C. D. Breder, S. F. Law, C. B. Saper, T. Reisine and G. I. Bell, J. Biol. Chem. 267,20422-20428 (1992). ^2 J. F. Bruno, Y. Xu, J. Song and M. Berelowitz, Proc. Natl. Acad. Sci. USA 89, 11151-11155 (1992). ^3 A. M. O'Carrol, S. J. Lolait, M. König and L. Mahan, Mol. Pharmacol. 42, 939-946 (1992). ^4 J. R. Hadcock, J. Strnad and C. M. Eppler, Mol. Pharmacol. 45, 410-416 (1994). ^5 J. Strnad, C. M. Eppler, M. Corbett and J. R. Hadcock, Biochem. Biophys. Res. Commun.191, 968-976 (1993).
Bovine adrenal gland extracts are prepared according to the method of Brown et al^6 with minor modifications. […] Two-four adrenals are thawed and the cortices are separated on ice: chopped into small pieces; resuspended in 1.5 volumes of buffer containing 0.25 M sucrose, 50 mM Tris-HCl pH 7.4, 25 mM KCl, 5 mM MgCl2 and protease inhibitors (5 µg/ml leupeptin, 5µg/ml aprotinin, 100 µg/ml bacitracin, and 100 µg/ml benzamidine; homogenized with a Polytron and centrifuged for 5 minutes. The resultant supernatant is saved and centrifuged for 15 minutes. This resultant supernatant is saved and stored as 1 mL aliquots at -80°C. Four adrenals glands are usually sufficient to prepare 30-50 one mL aliquots. Each preparation is tested with standards at different dilutions before use in the following experiment. ^6 B. L. Brown, J. D. M. Albano, R. P. Ekins and A. M. Sgherzi, Biochem. J. 121, 561-562 (1971).
Somatostatin-mediated inhibition of cyclic AMP accumulation is measured in intact cells co-incubated with the diterpene forskalin (5 µM) which activates adenylyl cyclase directly and stimulates cyclic AMP accumulation in cells. The medium is aspirated from two 100 mm plates of cells, a 5 mL portion of phosphate-buffered saline containing 2 mM EDTA is added to each plate. The cells are washed off the plate, without scraping. The cells are then pelleted and resuspended in Kreb's Ringers Phosphate (KRP) containing 2 mM CaCl2 (added fresh), washed once and resuspended in 2 ml of KRP with a CaCl2 containing 100 µM IBMX. The cells are counted and the concentration of cells is adjusted to 50,000/70 µl and incubated 15 minutes at room temperature before starting the assay.
Polypropylene tubes (12 x 75) are labelled (test samples are done in triplicate including controls). Test samples are prepared containing the following: no added peptide sample (basal), forskalin alone (10 µM final), and forskalin plus various amounts of S-14 (1 X 10^-10M to 1 X 10^-6M, final). The first two steps are done on the bench top. Volumes are adjusted with KRP and 10 µl 1 mM IBMX is added to each tube. The tubes are placed in a shaking 37°C water bath and 70 µl cells is added at 15 second intervals until final volume/tube is 100 µL (concentration of cells is 25-100,000/tube). The tubes are incubated for 15 minutes at 37°C, treated with 10 µl of 1.0 N HCl at 10 second intervals and transfered to an ice bath for 3 minutes (tubes may be stored overnight). The samples are neutralized with […] 1.0 N NaOH containing 250 mM Tris, pH 7.4.
The test tube racks are placed half way down in a large chest of ice. A 50µl portion of cyclic AMP standard (Sigma) is aliquoted to each tube in triplicate (e.g. 0, 0.5, 1.0, 2.0, 4.0, 8.0, 16.0 pmoles/tube), then 70µl KRP is added to each tube of standard. One set of tubes containing 220 µl KRP is set up for the background. […]

SSTR2, sequence (P30680 whole entry): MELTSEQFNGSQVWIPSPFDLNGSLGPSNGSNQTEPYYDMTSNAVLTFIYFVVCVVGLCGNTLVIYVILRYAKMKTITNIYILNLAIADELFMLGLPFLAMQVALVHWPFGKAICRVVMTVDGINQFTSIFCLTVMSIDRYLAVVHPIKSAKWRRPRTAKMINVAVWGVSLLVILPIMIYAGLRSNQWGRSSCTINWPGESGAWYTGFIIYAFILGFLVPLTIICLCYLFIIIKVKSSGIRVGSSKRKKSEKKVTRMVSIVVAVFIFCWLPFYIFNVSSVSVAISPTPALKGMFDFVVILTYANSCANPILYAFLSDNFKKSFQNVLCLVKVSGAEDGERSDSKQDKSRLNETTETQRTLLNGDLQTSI

Emax | SMILES
-3% | CC(=O)N[C@@H](Cc1ccc([N+](=O)[O-])cc1)C(=O)N[C@@H]1CSSC[C@@H](C(=O)N[C@H](Cc2ccc(O)cc2)C(N)=O)NC(=O)[C@H]([C@@H](C)O)NC(=O)[C@H](CCCCN)NC(=O)[C@@H](Cc2c[nH]c3ccccc23)NC(=O)[C@H](Cc2ccc(O)cc2)NC1=O
-26% | CC(=O)N[C@@H](Cc1ccc2ccccc2c1)C(=O)N[C@@H]1CSSC[C@@H](C(=O)N[C@@H](Cc2ccc(O)cc2)C(N)=O)NC(=O)[C@H]([C@@H](C)O)NC(=O)[C@H](CCCCN)NC(=O)[C@@H](Cc2c[nH]c3ccccc23)NC(=O)[C@H](Cc2ccc(O)cc2)NC1=O (Ac-[2Nal][dC]Y[dW]KTCY-NH2; disulfide 2-7 (inferred))
13% | CC(C)[C@@H]1NC(=O)[C@H](CCCCN)NC(=O)[C@@H](Cc2c[nH]c3ccccc23)NC(=O)[C@H](Cc2ccc(O)cc2)NC(=O)[C@H](NC(=O)[C@@H](N)Cc2ccc3ccccc3c2)CSSC[C@@H](C(=O)N[C@@H](Cc2ccc(O)cc2)C(N)=O)NC1=O (H-[2Nal][dC]Y[dW]KVCY-NH2; disulfide 2-7; N-terminus assumed)
9% | CN[C@@H](Cc1ccc([N+](=O)[O-])cc1)C(=O)N[C@@H]1CSSC[C@@H](C(=O)N[C@@H](Cc2ccc(O)cc2)C(N)=O)NC(=O)[C@H](C(C)C)NC(=O)[C@H](CCCCN)NC(=O)[C@@H](Cc2c[nH]c3ccccc23)NC(=O)[C@H](Cc2ccc(O)cc2)NC1=O (H-[NMePhe(4-NO2)][dC]Y[dW]KVCY-NH2; disulfide 2-7 (inferred))
11% | CC(C)[C@@H]1NC(=O)[C@H](CCCCN)NC(=O)[C@@H](Cc2c[nH]c3ccccc23)NC(=O)[C@H](Cc2ccc(O)cc2)NC(=O)[C@H](NC(=O)[C@@H](N)Cc2ccc([N+](=O)[O-])cc2)CSSC[C@@H](C(=O)N[C@@H](Cc2ccc(O)cc2)C(N)=O)NC1=O (H-[Phe(4-NO2)][dC]Y[dW]KVCY-NH2; disulfide 2-7 (inferred))
8% | CC(C)[C@@H]1NC(=O)[C@H](CCCCN)NC(=O)[C@@H](Cc2c[nH]c3ccccc23)NC(=O)[C@H](Cc2ccc(O)cc2)NC(=O)[C@H](NC(=O)[C@@H](N)Cc2ccc([N+](=O)[O-])cc2)CSSC[C@@H](C(=O)N[C@@H](Cc2ccc3ccccc3c2)C(N)=O)NC1=O (H-[Phe(4-NO2)][dC]Y[dW]KVC[2Nal]-NH2; disulfide 2-7 (inferred))
21% | CC[C@@H]1NC(=O)[C@H](CCCCN)NC(=O)[C@@H](Cc2c[nH]c3ccccc23)NC(=O)[C@H](Cc2ccc(O)cc2)NC(=O)[C@H](NC(=O)[C@@H](N)Cc2ccc([N+](=O)[O-])cc2)CSSC[C@@H](C(=O)N[C@@H](Cc2ccc(O)cc2)C(N)=O)NC1=O (H-[Phe(4-NO2)][dC]Y[dW]K[Abu]CY-NH2; disulfide 2-7 (inferred))
8% | CC(C)[C@@H]1NC(=O)[C@H](CCCCN)NC(=O)[C@@H](Cc2c[nH]c3ccccc23)NC(=O)[C@H](Cc2ccc(O)cc2)NC(=O)[C@H](NC(=O)[C@H](N)Cc2ccc3ccccc3c2)CSSC[C@@H](C(=O)N[C@@H](Cc2ccc(O)cc2)C(N)=O)NC1=O (H-[d2Nal][dC]Y[dW]KVCY-NH2; disulfide 2-7)

SMILES | Emax
C[C@@H](O)[C@@H]1NC(=O)[C@H](CCCCN)NC(=O)[C@@H](Cc2c[nH]c3ccccc23)NC(=O)[C@H](Cc2ccc(O)cc2)NC(=O)[C@H](NC(=O)[C@@H](N)Cc2ccc([N+](=O)[O-])cc2)CSSC[C@@H](C(=O)N[C@H](Cc2ccc(O)cc2)C(N)=O)NC1=O | 12%
C[C@@H](O)[C@@H]1NC(=O)[C@H](CCCCN)NC(=O)[C@@H](Cc2c[nH]c3ccccc23)NC(=O)[C@H](Cc2ccc(O)cc2)NC(=O)[C@H](NC(=O)[C@@H](N)Cc2ccc([N+](=O)[O-])cc2)CSSC[C@@H](C(=O)N[C@@H](Cc2ccc(O)cc2)C(N)=O)NC1=O | 5%
